Assay results reported in patent US8575320B2, “Compositions and methods for separating, characterizing and administering soluble selenoglycoproteins” (Alltech, Inc., priority 2010, dated 2013).

Tested on: gene expression in chicken breast muscle tissue
Assay: Microarray gene expression profile in breast muscle of broilers fed different selenium sources
Format: in vivo
Conditions: P<0.05, FC>1.2 vs Control, 0.3 ppm Se diet, 18 days
Method: Breast muscle tissue from chickens referenced in Example 3 was used to assess similarities and differences in gene expression profiles elicited by the following dietary treatments: Treatment 1-basal (Control); Treatment 2-Control+0.3 ppm sodium-selenite (SS); Treatment 3-Control+0.3 ppm SEL-PLEX; Treatment 6-0.3 ppm SGP fraction extracted from SEL-PLEX (SP) at pH 4.0. […] As such, experiments were conducted during development of embodiments of the invention in order to determine if animals receiving SGP fraction pH 4.0 experienced similar in vivo effects (e.g., gene expression changes) observed in SP fed animals, or whether significant, measurable differences existed.
At 18-days of age, five chickens from each treatment group (described above and in Tables 3 and 4) were randomly selected and euthanized by argon asphyxiation, followed by cervical dislocation. Samples of breast muscle tissue (1 gram) were rapidly removed and flash frozen in liquid nitrogen. Samples were stored at −80° C. until analyzed.
Total RNA was isolated from frozen tissue using TRIZOL reagent (INVITROGEN, Carlsbad, Calif.) according to the manufacturer's protocol and purified using a RNEASY kit (QIAGEN, Valencia, Calif.). Total RNA was quantified by absorbance at 260 nm and integrity was confirmed by agarose gel electrophoresis and ethidium bromide staining of the 28S and 18S bands. […]

Structure (SMILES): O=[Se](O)O [SS, sodium selenite]
- number of genes significantly changed: 283
